Measured values as given in ChEMBL document CHEMBL1138640, “Synthesis, radiolabeling, and preliminary biological evaluation of [3H]-1-[(S)-N,O-bis-(isoquinolinesulfonyl)-N-methyl-tyrosyl]-4-(o-tolyl)-piperazine, a potent antagonist radioligand for the P2X7 receptor” (Bioorg Med Chem Lett, 2004).

Assays:
P2X purinoceptor 7 [1] = molecular target: T1, P2X purinoceptor 7 (Homo sapiens, UniProt Q99572); assay: Maximum binding affinity towards P2X purinoceptor 7 expressed in HEK 293 cells; type: cell-based, HEK293
T1 sequence (Q99572 whole entry): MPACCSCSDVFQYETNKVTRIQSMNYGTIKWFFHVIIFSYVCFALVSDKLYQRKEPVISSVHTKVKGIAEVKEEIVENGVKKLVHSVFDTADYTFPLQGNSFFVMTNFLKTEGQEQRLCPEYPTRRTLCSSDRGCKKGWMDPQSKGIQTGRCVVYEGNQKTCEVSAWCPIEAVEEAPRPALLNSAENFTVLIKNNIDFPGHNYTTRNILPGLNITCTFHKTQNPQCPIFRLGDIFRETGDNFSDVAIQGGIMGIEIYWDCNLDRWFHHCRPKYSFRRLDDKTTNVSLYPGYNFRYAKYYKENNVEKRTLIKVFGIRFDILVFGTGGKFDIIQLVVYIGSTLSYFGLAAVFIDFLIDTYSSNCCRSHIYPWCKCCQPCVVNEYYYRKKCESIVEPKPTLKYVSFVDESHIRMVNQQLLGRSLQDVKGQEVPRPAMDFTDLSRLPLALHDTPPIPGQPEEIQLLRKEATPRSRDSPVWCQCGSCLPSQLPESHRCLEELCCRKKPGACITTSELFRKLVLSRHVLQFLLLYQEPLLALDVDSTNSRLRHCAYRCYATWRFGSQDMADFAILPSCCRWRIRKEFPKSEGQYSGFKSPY

Cell line = assay: inhibitory concentration against ATP-dependant calcium influx across plasma membrane of human monocytes; type: functional, cell-based
P2X purinoceptor 7 [2] = molecular target: T1, P2X purinoceptor 7; assay: Equilibrium constant for P2X purinoceptor 7 expressed in HEK 293 cells at 1 uM; type: cell-based, HEK293
[3] = molecular target: T2, P2X purinoceptor 7 (Homo sapiens) (UniProt Q99572); conditions: HEK293
T2 sequence (whole entry): T1 sequence (Q99572 whole entry)
Description: Association rate constant towards P2X purinoceptor 7 expressed in HEK 293 cells

[4] = molecular target: T2, P2X purinoceptor 7 (Homo sapiens); conditions: HEK293, 1 uM
Description: Dissociation rate constant for P2X purinoceptor 7 expressed in HEK 293 cells at 1 uM

Kd (P2X purinoceptor 7 [1]) [nM]	IC50 (Cell line) [nM]	Kd (P2X purinoceptor 7 [2]) [nM]	k obs [3] [s⁻¹]	K-1 [4] [min⁻¹]	Compound
3.57	15	3.57	0.000767	0.025	Cc1ccccc1N1CCN(C(=O)[C@H](Cc2ccc(OS(=O)(=O)c3cccc4cnccc34)cc2)N(C)S(=O)(=O)c2cccc3cnccc23)CC1
–	51	–	–	–	CN([C@@H](Cc1ccc(OS(=O)(=O)c2cccc3cnccc23)cc1)C(=O)N1CCN(c2ccccc2)CC1)S(=O)(=O)c1cccc2cnccc12
